# Read-outs that look alike come from different tables or passages of the source.
# How the values were obtained:
# Pyrenophora teres = Pyrenophora teres test (barley)/protective; assay type: in vivo; conditions: 500 ppm active substance, protective, evaluation 7-9 days after inoculation, read-out: degree of effectiveness
# Protocol: Pyrenophora teres Test (Barley)/Protective
# (§1) To prepare a suitable active substance composition, 1 part by weight of active substance is mixed with the given amounts of solvent and emulsifier and the concentrate is diluted to the desired concentration using water.
# For the testing of protective effectiveness, young barley plants are sprayed with the active substance composition in the application rate given. 1 day after the treatment, the plants are inoculated with an aqueous suspension of the spores of Pyrenophora teres and then remain at 100% relative humidity and 20° C. for 48 h. Subsequently, the plants are placed in a greenhouse at 80% relative humidity and a temperature of 20° C.
# Evaluation is carried out 7-9 days after the inoculation. In this connection, 0% means a degree of effectiveness corresponding to that of the control, while a degree of effectiveness of 100% means that no infestation is observed.
# [1] = tested on: Blumeria graminis f.sp. hordei; assay: Blumeria graminis test (barley)/protective; assay type: in vivo; conditions: 168 h, 1000 ppm active substance, protective, evaluation 7 days after inoculation, read-out: degree of effectiveness
# Protocol: Blumeria graminis Test (Barley)/Protective
# as §1
# For the testing of protective effectiveness, young plants are sprayed with the active substance composition in the application rate given.
# After the spray coating has been dried on, the plants are dusted with spores of Blumeria graminis f.sp. hordei.
# The plants are placed in a greenhouse at a temperature of approximately 20° C. and a relative humidity of approximately 80%, in order to encourage the development of mildew pustules.
# Evaluation is carried out 7 days after the inoculation. In this connection, 0% means a degree of effectiveness corresponding to that of the control, while a degree of effectiveness of 100% means that no infestation is observed.
# [2] = tested on: Puccinia recondita var. tritici; assay: Puccinia test (wheat)/protective; assay type: in vivo; conditions: 240 h, 1000 ppm active substance, protective, evaluation 10 days after inoculation, read-out: degree of effectiveness
# Protocol: Puccinia Test (Wheat)/Protective
# as §1
# For the testing of protective effectiveness, young plants are sprayed with the active substance composition in the application rate given. After the spray coating has been dried on, the plants are sprayed with a suspension of the conidia of Puccinia recondita var. tritici. The plants remain in an incubation chamber at 20° C. and 100% relative humidity for 48 hours.
# The plants are then placed in a greenhouse at a temperature of approximately 20° C. and a relative humidity of 80%, in order to encourage the development of rust pustules.
# Evaluation is carried out 10 days after the inoculation. In this connection, 0% means a degree of effectiveness corresponding to that of the control, while a degree of effectiveness of 100% means that no infestation is observed.
# Sphaerotheca fuliginea = assay: Sphaerotheca test (cucumber)/protective; assay type: in vivo; conditions: Podosphaera fuliginea, 168 h, 100 ppm active substance, protective, evaluation 7 days after inoculation, read-out: degree of effectiveness
# Protocol: Sphaerotheca Test (Cucumber)/Protective [table] To prepare a suitable active substance composition, 1 part by weight of active substance is mixed with the given amounts of solvents and emulsifier and the concentrate is diluted to the desired concentration using water. For the testing of protective effectiveness, young plants are sprayed with the active substance composition in the application rate given. After the spray coating has been dried on, the plants are inoculated with an aqueous suspension of spores of Sphaerotheca fuliginea. The plants are then placed in a greenhouse at approximately 23° C. and a relative humidity of approximately 70%. Evaluation is carried out 7 days after the inoculation. In this connection, 0% means a degree of effectiveness corresponding to that of the control, while a degree of effectiveness of 100% means that no infestation is observed.
# Alternaria solani = assay: Alternaria test (tomato)/protective; assay type: in vivo; conditions: 168 h, 500 ppm active substance, protective, evaluation 7 days after inoculation, read-out: degree of effectiveness
# Protocol: Alternaria Test (Tomato)/Protective [table] To prepare a suitable active substance composition, 1 part by weight of active substance is mixed with the given amounts of solvent and emulsifier and the concentrate is diluted to the desired concentration using water. For the testing of protective effectiveness, young tomato plants are sprayed with the active substance composition in the application rate given. 1 day after the treatment, the plants are inoculated with a suspension of the spores of Alternaria solani and then stand at 100% relative humidity and 20° C. for 24 h. Subsequently, the plants stand at 96% relative humidity and a temperature of 20° C. Evaluation is carried out 7 days after the inoculation. In this connection, 0% means a degree of effectiveness corresponding to that of the control, while a degree of effectiveness of 100% means that no infestation is observed.
# Uromyces appendiculatus = assay: Uromyces test (beans)/protective; assay type: in vivo; conditions: 240 h, 100 ppm active substance, protective, evaluation 10 days after inoculation, read-out: degree of effectiveness
# Protocol: Uromyces Test (Beans)/Protective [table] To prepare a suitable active substance composition, 1 part by weight of active substance is mixed with the given amounts of solvents and emulsifier and the concentrate is diluted to the desired concentration using water. For the testing of protective effectiveness, young plants are sprayed with the active substance composition in the application rate given. After the spray coating has been dried on, the plants are inoculated with an aqueous suspension of the spores of the bean rust pathogen Uromyces appendiculatus and then remain in an incubation chamber at approximately 20° C. and 100% relative humidity for 1 day. The plants are then placed in a greenhouse at approximately 21° C. and a relative humidity of approximately 90%. Evaluation is carried out 10 days after the inoculation. In this connection, 0% means a degree of effectiveness corresponding to that of the control, while a degree of effectiveness of 100% means that no infestation is observed.
Structure (SMILES),logP (physchem; pH 2.3),pest or weed control at 500 ppm (Pyrenophora teres) [%],pest or weed control at 1000 ppm [1] [%],pest or weed control at 1000 ppm [2] [%],pest or weed control at 100 ppm (Sphaerotheca fuliginea) [%],pest or weed control at 500 ppm (Alternaria solani) [%],pest or weed control at 100 ppm (Uromyces appendiculatus) [%],logP (physchem)
"Cc1cc(Oc2nc(C3(C)CC3)ns2)c(C)cc1N [2,5-Dimethyl-4-{[3-(1-methylcyclopropyl)-1,2,4-thiadiazol-5-yl]oxy}aniline]",3.08,,,,,,,
"Cc1cc(Oc2nc(C3(Cl)CC3)ns2)c(C)cc1/N=C/N1CCCCC1 [Compound 13, 4-{[3-(1-Chlorocyclopropyl)-1,2,4-thiadiazol-5-yl]oxy}-2,5-dimethyl-N-[(1E)-piperidin-1-yl-methylidene]aniline]",1.76,≥ 70,≥ 70,≥ 70,≥ 70,,,
"Cc1cc(Oc2nc(C3CC3C)ns2)c(C)cc1/N=C/N1CCCCC1 (stereo not drawn) [Compound 16, 2,5-Dimethyl-4-{[3-(2-methylcyclopropyl)-1,2,4-thiadiazol-5-yl]oxy}-N-[(1E)-piperidin-1-ylmethylidene]aniline]",1.78,≥ 70,≥ 70,≥ 70,≥ 70,≥ 70,≥ 70,
"Cc1cc(Oc2nc(C3(Cl)CC3)ns2)c(C)cc1N=CN(C)C(C)C [Compound 18, N′-(4-{[3-(1-Chlorocyclopropyl)-1,2,4-thiadiazol-5-yl]oxy}-2,5-dimethylphenyl)-N-methyl-N-(1-methylethyl)imidoformamide]",2.01,≥ 70,≥ 70,≥ 70,≥ 70,≥ 70,≥ 70,
"Cc1cc(Oc2nc(C3(Cl)CC3)ns2)c(C)cc1N=CN(C)C [Compound 19, N′-(4-{[3-(1-Chlorocyclopropyl)-1,2,4-thiadiazol-5-yl]oxy}-2,5-dimethylphenyl)-N,N-dimethylimidoformamide]",1.52,≥ 70,≥ 70,≥ 70,≥ 70,≥ 70,≥ 70,
"Cc1cc(Oc2nc(C3CC3C)ns2)c(C)cc1N=CN(C)C (stereo not drawn) [Compound 20, N′-(2,5-Dimethyl-4-{[3-(2-methylcyclopropyl)-1,2,4-thiadiazol-5-yl]oxy}phenyl)-N,N-di-methylimidoformamide]",1.62,≥ 70,≥ 70,≥ 70,≥ 70,≥ 70,≥ 70,
"CCN(C)C=Nc1cc(C)c(Oc2nc(C3(C)CC3)cs2)cc1C [Compound 22, N′-(2,5-Dimethyl-4-{[4-(1-methylcyclopropyl)-1,3-thiazol-2-yl]oxy}phenyl)-N-ethyl-N-methylimidoformamide]",1.86,,≥ 70,≥ 70,,≥ 70,,4.96
"Cc1cc(Oc2nc(C3(C)CC3)c(Cl)s2)c(C)cc1/N=C/N1CCCCC1 [Compound 24, 4-{[5-Chloro-4-(1-methylcyclopropyl)-1,3-thiazol-2-yl]oxy}-2,5-dimethyl-N-[(1E)-piperidin-1-ylmethylidene]aniline]",2.34,≥ 70,≥ 70,≥ 70,≥ 70,≥ 70,≥ 70,
"Cc1cc(Oc2nc(C3(C)CC3(Cl)Cl)ns2)c(C)cc1/N=C/N1CCCCC1 (stereo not drawn) [Compound 26, 4-{[3-(2,2-Dichloro-1-methylcyclopropyl)-1,2,4-thiadiazol-5-yl]oxy}-2,5-dimethyl-N-[(1E)-piperidin-1-ylmethylidene]aniline]",2.08,≥ 70,,,≥ 70,≥ 70,≥ 70,
"CCC1(c2nsc(Oc3cc(C)c(/N=C/N4CCCCC4)cc3C)n2)C(C)C1(Cl)Cl (stereo not drawn) [Compound 28, 4-{[3-(2,2-Dichloro-1-ethyl-3-methylcyclopropyl)-1,2,4-thiadiazol-5-yl]oxy}-2,5-dimethyl-N-[(1E)-piperidin-1-ylmethylidene]aniline]",2.35,≥ 70,,,≥ 70,,≥ 70,
"Cc1cc(Oc2nc(C3(C)CC3)ns2)c(C)cc1/N=C/N1CCC1 [Compound 31, N-[(1E)-Azetidin-1-ylmethylidene]-2,5-dimethyl-4-{[3-(1-methylcyclopropyl)-1,2,4-thiadiazol-5-yl]oxy}aniline]",1.6,,≥ 70,≥ 70,,,,
"Cc1cc(Oc2nc(C3CC3C)ns2)c(C)cc1/N=C/N1CCC1 (stereo not drawn) [Compound 32, N-[(1E)-Azetidin-1-ylmethylidene]-2,5-dimethyl-4-{[3-(2-methylcyclopropyl)-1,2,4-thiadiazol-5-yl]oxy}aniline]",1.96,,,,,,,
"CCN(C)C=Nc1cc(Cl)c(Oc2nc(C3(Cl)CC3)ns2)cc1C [Compound 33, N′-(5-Chloro-4-{[3-(1-chlorocyclopropyl)-1,2,4-thiadiazol-5-yl]oxy}-2-methylphenyl)-N-ethyl-N-methylimidoformamide]",1.72,≥ 70,,,≥ 70,≥ 70,,
"Cc1cc(Oc2nc(C3(Cl)CC3)ns2)c(Cl)cc1/N=C/N1CCCCC1 [Compound 34, 5-Chloro-4-{[3-(1-chlorocyclopropyl)-1,2,4-thiadiazol-5-yl]oxy}-2-methyl-N-[(1E)-piperidin-1-ylmethylidene]aniline]",1.98,≥ 70,,,≥ 70,,,
